Reference: US20020107197A1, “Ligands for G protein coupled receptors and methods of using them” (priority 2000, published 2002)

How the values were obtained:
GPR4 [1] = molecular target: T1, GPR4 (Homo sapiens, UniProt P46093); test: Single-cell intracellular calcium assay (fura-2) in GPR4-GFP-transfected MCF10A cells; format: cell-based; conditions: for increase in [Ca2+]i in GPR4- vs vector-transfected/parental MCF10A cells: lipid at 1 μM; for EC50: GPR4-transfected MCF10A cells, 1 mM EGTA, read-out: EC50 of calcium mobilization; for block of the lipid-induced increase in [Ca2+]i by BSA: lipid 1 μM preincubated with 0.5% fatty acid-free BSA, lipid:BSA approximately 1:75
T1 construct: were used to generate full length GPR4, which was digested with EcoRI and Xba I and cloned into the pBs3HA vector; expressed in transfected cells
Protocol: Measurement of [Ca^2+]i, was performed as described previously in Xu et al. (2000) Nat Cell Biol 2, 261-267. Briefly, pGPR4-GFP-transfected MCF10A cells were grown in specialized glass-bottom dishes (Bioptech, Inc., Butler, Pa.) and loaded with fura-2 in HEPES buffered saline. Using a dual-wavelength spectrofluorometer (RFK-6002, Photon Technology Int'l, So. Brunswick, N.J.) coupled to an inverted fluorescence microscope (Olympus, IX-70, Lake Success, N.Y.), GFP-positive cells were identified using an excitation wavelength of 488 nm, a dichroic 505 nm long-pass filter and an emitter filter at bandpass of 535 nm (Chroma Technology, Brattleboro, Vt.). Measurements of [Ca^2+]i were performed on individual GPR4-GFP positive cells at excitation wavelengths of 340 and 380 nm and an emission wavelength of 510 nm. Conversion of the 340/380 ratio value into [Ca^2+]i in nM was estimated by comparing the cellular fluorescence ratio with ratios acquired using fura-2 (free acid) in buffers containing known Ca^2+ concentrations. [Ca^2+]i was then calculated as described by Grynkiewicz et al. (1985) J Biol Chem 260, 3440-3450. All calcium assays were performed in the presence of 1 mM EGTA in the assay buffers. Therefore, intracellular calcium release, not calcium influx, was analyzed.
To test whether GPR4 is a receptor for SPC, MCF10A cells were transiently transfected with pGPR4-GFP.
The GFP receptor fusion was used to identify positively transfected cells, and single-cell calcium assays were performed as described in our previous studies, such as Xu et al. (2000) Nat Cell Biol 2, 261-267.

TDAG8 = molecular target: T2, TDAG8 (Homo sapiens, UniProt Q8IYL9); test: SRE luciferase reporter in TDAG8-transfected HEK293 cells; format: cell-based; conditions: lipid 1 μM, TDAG8-transfected HEK293 cells
T2 construct: expressed in transfected cells

GPR4 [2] = molecular target: T1, GPR4; test: SRE luciferase reporter in GPR4-transfected HEK293 cells; format: cell-based; conditions: GPR4-transfected HEK293 cells; for EC50: read-out: EC50 for the activation of SRE; for activation of SRE reporter: lipid 1 μM
How it was run: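 HEK293 cells, vector-, GPR4- or TDAG8-transfected, co-transfected with pSRE-Luc, serum-starved 16 h, then given SPC or other lipids in serum-free RPMI 1640 for 10 h before luciferase readout from lysates. Where used, PTX (100 ng/ml) added during starvation; C3-exoenzyme plasmid co-transfected. Quadruplicates, Student's t test, p<0.05.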

GPR4 [3] = molecular target: T1, GPR4; test: Radioligand binding to homogenates of GPR4-transfected CHO cells; conditions: GPR4-transfected CHO cell homogenates; for maximum binding capacity / Kd: 4° C.; for Kd: Scatchard analysis, [3H]SPC or [3H]16:0-LPC, read-out: dissociation constant (Kd); for competition for binding of [3H]SPC and [3H]16:0-LPC to GPR4: cold competitors
Protocol: To characterize the binding of SPC and LPC to GPR4 and TDAG8, we conducted radioligand binding assays. CHO cells were chosen for GPR4 binding assays, since HEK293 cells express relatively high levels of endogenous GPR4. CHO cells stably transfected with empty vector or GPR4 were serum starved for 20 h, then collected after exposure to 2 mM EDTA in PBS. The pelleted cells were stored at −80° C. until use. Binding assays were performed essentially as described previously (Xu et al. (2000) Nat Cell Biol 2, 261-267), except binding was performed at 4° C. Briefly, frozen cells (10^6 cells/ml) were homogenized in a binding buffer. Assays were performed in 96-well plates in triplicate with 100 μl cell homogenate (equivalent to 10^5 cells/well). Different amounts of [^3H]SPC or [^3H]16:0-LPC were added to the cell homogenates in 50 μl of binding buffer, in the presence or absence of cold SPC or 16:0-LPC, or other competitors. The plates were incubated at 4° C. for 120 min, unless otherwise indicated. Cell-bound [^3H]SPC or [^3H]LPC was collected onto a filter (Printed Filtermat A, Wallac, Gaithersburg, Md.) using an automated cell harvester (HARVESTER 96, Tomtec, Orange, Conn.). Specific binding was calculated by subtraction of nonspecific binding (binding detected in the presence of 100-fold excess unlabeled SPC or 16:0-LPC) from the total binding.
Cell homogenates were used for binding assays. Binding was conducted at 4° C. for 120 min or as indicated. [^3H]SPC and [^3H]16:0-LPC specifically bound to cell homogenates from GPR4-transfected CHO cells in a time-dependent manner and reached equilibrium after 60 min incubation at 4° C. […] The maximum binding capacities for SPC and 16:0-LPC were 996 fmole/10^5 cells for SPC and 1,528 fmole/10^5 cells for 16:0-LPC. […] Binding assays using [^3H]18:0-LPC gave similar results. We also tested the four glycosphingolipids, Psy, Glu-Sph, Gal-Cer, and Lac-Cer, for their ability to compete for the binding of [^3H]SPC and [^3H]16:0-LPC to GPR4.

T1 sequence (P46093 whole entry): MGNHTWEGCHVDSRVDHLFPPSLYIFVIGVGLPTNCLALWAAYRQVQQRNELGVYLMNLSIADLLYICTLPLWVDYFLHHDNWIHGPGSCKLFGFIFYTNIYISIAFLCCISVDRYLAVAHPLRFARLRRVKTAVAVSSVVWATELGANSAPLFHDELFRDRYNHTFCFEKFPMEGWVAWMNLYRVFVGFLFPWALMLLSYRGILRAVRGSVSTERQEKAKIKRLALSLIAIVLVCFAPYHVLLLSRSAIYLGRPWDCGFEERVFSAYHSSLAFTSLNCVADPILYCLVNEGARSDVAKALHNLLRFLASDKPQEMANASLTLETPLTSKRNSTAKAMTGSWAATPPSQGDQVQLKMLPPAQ
T2 sequence (Q8IYL9 whole entry): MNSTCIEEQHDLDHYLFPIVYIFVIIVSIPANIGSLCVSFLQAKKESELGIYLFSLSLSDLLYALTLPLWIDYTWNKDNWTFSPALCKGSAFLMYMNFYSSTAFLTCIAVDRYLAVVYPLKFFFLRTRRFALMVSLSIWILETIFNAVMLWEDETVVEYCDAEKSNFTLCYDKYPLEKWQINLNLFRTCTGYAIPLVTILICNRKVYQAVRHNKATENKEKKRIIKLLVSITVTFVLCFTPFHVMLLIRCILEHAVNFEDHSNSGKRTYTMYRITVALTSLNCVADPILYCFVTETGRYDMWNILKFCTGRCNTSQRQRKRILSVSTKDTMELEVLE

Compound | increase in [Ca2+]i in GPR4- vs vector-transfected/parental MCF10A cells (GPR4 [1]) | activation of SRE reporter (TDAG8) [fold] | EC50 (GPR4 [2]) [nM] | activation of SRE reporter (GPR4 [2]) [fold] | maximum binding capacity (GPR4 [3]) | Kd (GPR4 [3]) [nM] | competition for binding of [3H]SPC and [3H]16:0-LPC to GPR4 (GPR4 [3]) | EC50 (GPR4 [1]) [nM] | block of the lipid-induced increase in [Ca2+]i by BSA (GPR4 [1])
CCCCCCCCCCCCCCCC(=O)OC[C@@H](O)COP(=O)([O-])OCC[N+](C)(C)C [16:0-LPC] | stimulated to produce increased [Ca^2+]i | 3.1 | 160 | 3.1 | 1,528 fmole/10^5 cells | 159 | successfully competed for binding |  | 
CCCCCCCCCCCCC/C=C/[C@@H](O)[C@@H](N)COP(=O)([O-])OCC[N+](C)(C)C [SPC, Sphingosylphosphorylcholine] | stimulated an increase in [Ca^2+]i in GPR4-, but not vector-transfected MCF10A cells | 4 | 63 | 4 | 996 fmole/10^5 cells | 36 | successfully competed for binding | 105 | more than 50%
lysophosphatidylcholine [LPC] |  |  |  |  |  | 159 |  | 1100 | > 95%
